Patent US12428386B2, “Sphingosine 1 phosphate receptor modulators” (RECEPTOS LLC, priority 2020, dated 2025)

Assays:
S1P1 = biological target: T1, S1P1 (Homo sapiens, UniProt P21453); test: [35S]-GTPγS binding assay, CHO-S1P receptor membranes, S1P1; assay type: biochemical; details: CHO-S1P receptor membrane; for Emax: control S1P, read-out: S1P1 % Efficacy
T1 construct: expressed in transfected cells; host or cells: CHO cell membranes
Protocol: (§1) Binding assays for [^35S]-GTPγS were performed in 96-well non-binding surface plates with a final volume of 200 μL. The test compounds were serial diluted in DMSO and added to assay plates using a Tecan D300E digital printer with a total volume of 0.4 μL. The control sphingosine-1-phosphate (S1P) was prepared separately by preparing a 400 μM stock solution from a 100 nmol pellet of S1P in 10 mM Na2CO3 with 2% β-cyclodextrin. The serial dilution of S1P was done using complete assay buffer (20 mM HEPES, 10 mM MgCl2, 100 mM NaCl, 1 mM EDTA, 0.1% fatty acid free bovine serum albumin [BSA], and 30 μg/mL saponin, pH7.4) and transferred to wells already containing 0.4 μL DMSO. All the wells were then loaded to a total volume of 40 μL of complete assay buffer, except the non-specific binding (NSB) wells. For NSB wells, 40 μL/well of 50 μM GTPγS (Sigma Aldrich, cat# G8634, St. Louis, MO) was added to wells containing 0.4 μL of DMSO. The assay was started by the addition of 120 μL/well of CHO-S1P receptor membrane solution containing 40 μg/mL of membrane protein, 16.67 μM guanosine diphosphate (GDP; Sigma Aldrich, cat# G7127, St. Louis, MO), and 2.5 mg/mL of WGA PVT SPA beads in complete buffer. Assay plates were then sealed and incubated at room temperature with gentle agitation for 30 minutes. Next, 40 μL/well of 1 nM of [^35S]-GTPγS (PerkinElmer, cat# NEG030×250UC, Waltham, MA) in basic assay buffer (20 mM HEPES, 10 mM MgCl2, 100 mM NaCl, and 1 mM EDTA, pH7.4) was added to the assay plates to yield a final concentration of 200 pM and the plates were further incubated for 40 minutes at room temperature with gentle agitation. The assay was terminated by centrifugation of the plates at 1000 rpm for 3 minutes using an Eppendorf 5810R centrifuge (Eppendorf, Hamburg, Germany) and G protein bound radioactivity was quantitated using a MicroBeta2 microplate scintillation counter (PerkinElmer, Waltham, MA).

S1P5 = biological target: T2, S1P5 (Homo sapiens, UniProt Q9H228); test: [35S]-GTPγS binding assay, CHO-S1P receptor membranes, S1P5; assay type: biochemical; details: CHO-S1P receptor membrane; for Emax: control S1P, read-out: S1P5 % Efficacy
T2 construct: expressed in transfected cells; host or cells: CHO cell membranes
Protocol: as §1

T1 sequence (P21453 whole entry, species assumed): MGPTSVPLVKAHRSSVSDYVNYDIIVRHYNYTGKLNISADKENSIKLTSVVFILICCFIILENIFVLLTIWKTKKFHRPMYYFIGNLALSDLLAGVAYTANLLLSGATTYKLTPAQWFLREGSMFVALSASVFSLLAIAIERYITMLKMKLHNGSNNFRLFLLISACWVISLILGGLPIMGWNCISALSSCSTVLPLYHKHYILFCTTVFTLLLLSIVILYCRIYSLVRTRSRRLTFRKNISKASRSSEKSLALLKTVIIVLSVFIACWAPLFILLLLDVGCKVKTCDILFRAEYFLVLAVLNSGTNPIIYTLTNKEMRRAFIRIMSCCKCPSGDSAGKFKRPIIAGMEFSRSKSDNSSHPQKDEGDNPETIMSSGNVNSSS
T2 sequence (Q9H228 whole entry, species assumed): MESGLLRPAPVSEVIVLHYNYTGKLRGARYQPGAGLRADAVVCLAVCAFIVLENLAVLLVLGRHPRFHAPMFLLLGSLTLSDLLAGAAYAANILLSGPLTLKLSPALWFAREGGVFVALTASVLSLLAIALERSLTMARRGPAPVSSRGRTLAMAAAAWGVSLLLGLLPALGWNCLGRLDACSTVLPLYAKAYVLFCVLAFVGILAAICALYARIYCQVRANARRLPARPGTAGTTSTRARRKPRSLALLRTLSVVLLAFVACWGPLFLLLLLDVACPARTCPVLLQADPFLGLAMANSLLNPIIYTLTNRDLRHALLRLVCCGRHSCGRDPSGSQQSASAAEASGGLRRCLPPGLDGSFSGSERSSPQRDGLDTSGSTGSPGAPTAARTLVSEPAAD

EC50 (S1P1) [nM]	Emax (S1P1) [%]	EC50 (S1P5) [nM]	Emax (S1P5) [%]	Compound
18	87	148	33	COC1=CCc2c1cccc2-c1noc(-c2ccc(OC(C)C)c(C#N)c2)n1 [compound 2, 2-isopropoxy-5-(3-(3-methoxy-1H-inden-7-yl)-1,2,4-oxadiazolyl)benzonitrile]
32	92	270	68	CCOC1=CCc2c1cccc2-c1noc(-c2ccc(OC(C)C)c(C#N)c2)n1 [compound 3, 5-(3-(3-ethoxy-1H-inden-7-yl)-1,2,4-oxadiazol-5-yl)-2-isopropoxy-benzonitrile]
7	86	151	79	CC(C)OC1=CCc2c1cccc2-c1noc(-c2ccc(OC(C)C)c(C#N)c2)n1 [compound 4, 2-isopropoxy-5-(3-(3-isopropoxy-1H-inden-7-yl)-1,2,4-oxadiazol-5-yl)-benzonitrile]
